Drawing on US11787762B2, “Tetralin and tetrahydroquinoline compounds as inhibitors of HIF-2alpha” (ARCUS BIOSCIENCES, INC., priority 2020, dated 2023), this text covers IC50 for 37 compounds.

For one test, the target named is T1, HIF-2α (Homo sapiens, UniProt Q99814).
T1 construct: host or cells: 786-O cells stably transduced with Cignal Lenti HIF Luc Reporter (only the reporter was introduced, not HIF-2α)
Briefly: HIF-2α luciferase reporter assay in HIF-Luc-786-O cells. The test is classed as cell-based. Put shortly:
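Luminescence (ONE-Glo) read after 20 h compound incubation, top concentration 50 uM, 1% DMSO, 20,000 HIF-Luc-786-O cells per well. Activity scaled between DMSO maximum and no-cell baseline; four-parameter dose-response fits yielded IC50.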
(A reporter such as luciferase makes a cellular process visible.)

For test [1], the target named is T2, Histidine tagged HIF-2α protein containing PAS-B domain (240-350) (Homo sapiens, UniProt Q99814).
T2 construct: HIF-2α protein containing PAS-B domain (240-350); made in house
Description: HIF-2α Scintillation Proximity Assay (SPA) binding assay. The following applies: 50 nM HIF-2α protein, 25 nM 3H-tracer. Put shortly: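 His-tagged HIF-2α PAS-B (240-350), 50 nM final, preincubated with compound 1 h at room temperature in 25 mM Tris-HCl pH 7.4, 150 mM NaCl, 0.15% BSA, 0.001% Tween 20, 2% DMSO. Copper-chelate SPA beads (3 ug/well, 45 min) and 25 nM tritiated N-(3-chlorophenyl)-4-nitro-2,1,3-benzoxadiazol-5-amine tracer followed; IC50 from four-parameter fits.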
(Scintillation proximity formats need no separation of bound from free tracer.)

T2 sequence (Q99814 240-350): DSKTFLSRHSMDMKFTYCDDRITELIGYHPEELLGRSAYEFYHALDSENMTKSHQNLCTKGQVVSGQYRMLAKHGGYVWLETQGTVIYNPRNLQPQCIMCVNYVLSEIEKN
T1 sequence (Q99814 whole entry): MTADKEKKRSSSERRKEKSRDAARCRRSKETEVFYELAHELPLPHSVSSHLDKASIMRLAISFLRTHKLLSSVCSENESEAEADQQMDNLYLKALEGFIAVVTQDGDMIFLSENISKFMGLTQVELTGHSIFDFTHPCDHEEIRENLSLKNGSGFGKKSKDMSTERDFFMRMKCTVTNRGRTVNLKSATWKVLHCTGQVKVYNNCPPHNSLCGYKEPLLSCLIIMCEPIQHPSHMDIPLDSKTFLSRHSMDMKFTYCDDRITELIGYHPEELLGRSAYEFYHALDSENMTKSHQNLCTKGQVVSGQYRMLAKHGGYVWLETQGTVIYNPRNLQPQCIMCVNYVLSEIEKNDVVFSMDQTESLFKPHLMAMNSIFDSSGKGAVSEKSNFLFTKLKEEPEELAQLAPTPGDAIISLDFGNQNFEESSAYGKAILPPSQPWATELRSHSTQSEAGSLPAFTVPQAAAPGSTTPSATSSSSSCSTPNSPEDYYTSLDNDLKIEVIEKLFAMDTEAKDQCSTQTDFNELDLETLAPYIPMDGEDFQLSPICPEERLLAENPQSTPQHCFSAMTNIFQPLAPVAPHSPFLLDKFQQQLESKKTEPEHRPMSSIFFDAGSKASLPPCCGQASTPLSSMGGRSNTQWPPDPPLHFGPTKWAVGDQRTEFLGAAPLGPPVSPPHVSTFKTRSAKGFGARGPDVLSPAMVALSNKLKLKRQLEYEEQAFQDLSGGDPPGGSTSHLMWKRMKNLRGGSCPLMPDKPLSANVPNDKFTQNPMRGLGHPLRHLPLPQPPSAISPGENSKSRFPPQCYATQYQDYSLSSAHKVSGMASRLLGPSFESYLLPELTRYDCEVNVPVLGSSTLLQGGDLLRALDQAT

On to `CC[C@H]1CCN(c2ccc(S(=O)(=O)C(F)(F)F)c3c2C[C@@H](F)[C@H]3O)c2c(F)cc(F)cc21` [Example 17, (1S,2R)-4-[(S)-4-ethyl-6,8-difluoro-1,2,3,4-tetrahydroquinol-1-yl]-2-fluoro-7-(trifluoromethylsulfonyl)-1-indanol], for which the IC50 fell in the range of 0.1 to 1 µM against HIF-2α (Table 1, 20 hours incubation) and 0.1 to 1 µM in test [1] (Table 1).

In the case of `N#Cc1cc(F)cc2c1N(c1ccc(C(F)(F)F)c(C#N)c1Cl)CCC2` [Example 28], the IC50 lay in the range of 0.1 to 1 µM on HIF-2α (Table 1, 20 hours incubation) and 0.1 to 1 µM in test [1] (Table 1).

With `O=S(=O)(c1ccc([C@]2(O)CCCc3cc(F)cc(F)c32)c2c1[C@H](O)[C@H](F)C2)C(F)(F)F` [Example 109], the IC50 was greater than 1 µM on HIF-2α (Table 1, 20 hours incubation) and greater than 1 µM in test [1] (Table 1).

Consider `Cc1c(N2CCC(F)(F)c3cc(F)cc(C#N)c32)cnc(C(F)(F)F)c1F` [Example 129, 4,4,6-Trifluoro-1-[5-fluoro-4-methyl-6-(trifluoromethyl)pyridin-3-yl]-2,3-dihydroquinoline-8-carbonitrile], for which the IC50 on HIF-2α (Table 2, 20 hours incubation) is less than 0.1 µM; in test [1] (Table 2), less than 0.1 µM.

Take `N#Cc1cc(F)cc2c1[C@@H](c1ccc(C(F)(F)F)c3c1C(=O)OC3)CC[C@@H]2F` [Example 142, (5S,8R)-3,5-Difluoro-8-[3-oxo-7-(trifluoromethyl)-1,3-dihydro-2-benzofuran-4-yl]-5,6,7,8-tetrahydronaphthalene-1-carbonitrile]: the IC50 at HIF-2α (Table 2, 20 hours incubation) is less than 0.1 µM; in test [1] (Table 2), less than 0.1 µM.

Take `N#Cc1cc(F)cc2c1[C@@H](c1ccc(S(=O)(=O)C(F)(F)F)c3c1C[C@@H](F)[C@H]3O)CC[C@@H]2F` [Example 136, (5S,8R)-3,5-Difluoro-8-[(1S,2R)-2-fluoro-1-hydroxy-7-(trifluoromethylsulfonyl)-2,3-dihydro-1H-inden-4-yl]-5,6,7,8-tetrahydronaphthalene-1-carbonitrile]: the IC50 is less than 0.1 µM at HIF-2α (Table 2, 20 hours incubation) and less than 0.1 µM in test [1] (Table 2).

Regarding `N#Cc1cc(F)cc2c1N(c1ccc(C(F)(F)F)c(F)c1C#N)CCC2O` (centres unmarked) [Example 119], the IC50 against HIF-2α (Table 1, 20 hours incubation) was 0.1 to 1 µM; in test [1] (Table 1) it was greater than 1 µM.

`CS(=O)(=O)c1ccc(N2CCC(F)c3cc(F)cc(C#N)c32)c(C#N)c1Cl` (centres unmarked) [Example 122, 1-(3-chloro-2-cyano-4-methylsulfonylphenyl)-4,6-difluoro-3,4-dihydro-2H-quinoline-8-carbonitrile]: the IC50 is less than 0.1 µM against HIF-2α (Table 2, 20 hours incubation) and less than 0.1 µM in test [1] (Table 2).

Turning to `Cc1c(-c2ccc([C@H]3CC[C@H](F)c4cc(F)cc(C#N)c43)c3c2[C@H](O)C(F)(F)C3)cnn1C` [Example 166, (5S,8R)-8-[(1S)-7-(1,5-dimethyl-1H-pyrazol-4-yl)-2,2-difluoro-1-hydroxy-2,3-dihydro-1H-inden-4-yl]-3,5-difluoro-5,6,7,8-tetrahydronaphthalene-1-carbonitrile], the IC50 on HIF-2α (Table 3, 20 hours incubation) is less than 0.1 µM; in test [1] (Table 3), less than 0.1 µM.

In the case of `CS(=O)(=O)c1ccc([C@H]2NCCc3cc(F)cc(F)c32)c2c1[C@H](O)C(F)(F)C2` [Example 111], the IC50 against HIF-2α (Table 1, 20 hours incubation) is greater than 1 µM; in test [1] (Table 1) it was greater than 1 µM.

For the compound `N#Cc1cc(F)cc2c1[C@@H](c1ccc(C(F)(F)F)c3c1OC(F)(F)[C@H]3O)CCC2` [Example 91], the concentration for half-maximal inhibition (IC50) on HIF-2α (Table 1, 20 hours incubation) is less than 0.1 µM; in test [1] (Table 1) it was less than 0.1 µM.

Regarding `CS(=O)(=O)c1ccc(N2CCCc3cc(F)cc(C#N)c32)c2c1[C@H](O)[C@H](F)C2` [Example 41], the IC50 against HIF-2α (Table 1, 20 hours incubation) was greater than 1 µM; in test [1] (Table 1), 0.1 to 1 µM.

Take `O=S(=O)(c1ccc([C@@H]2c3c(F)cc(F)cc3CC[C@@H]2O)c2c1[C@H](O)[C@H](F)C2)C(F)(F)F` [Example 101]: the IC50 is greater than 1 µM at HIF-2α (Table 1, 20 hours incubation) and 0.1 to 1 µM in test [1] (Table 1).

`Cc1cnn(C)c1-c1ccc([C@H]2CC[C@H](F)c3cc(F)cc(C#N)c32)c2c1[C@H](O)[C@H](F)C2` [Example 152]: the IC50 at HIF-2α (Table 3, 20 hours incubation) was less than 0.1 µM; in test [1] (Table 3), less than 0.1 µM.

Turning to `O=S(=O)(c1ccc(C2CCCc3cc(F)cc(F)c32)c2c1[C@H](O)[C@H](F)C2)C(F)(F)F` (some centres unmarked) [Example 89], the IC50 is less than 0.1 µM on HIF-2α (Table 1, 20 hours incubation) and less than 0.1 µM in test [1] (Table 1).

With `Cn1nccc1-c1ccc([C@H]2CC[C@H](F)c3cc(F)cc(C#N)c32)c2c1[C@H](O)C(F)(F)C2` [Example 143, (5S,8R)-8-[(1S)-2,2-difluoro-1-hydroxy-7-(2-methylpyrazol-3-yl)-1,3-dihydroinden-4-yl]-3,5-difluoro-5,6,7,8-tetrahydronaphthalene-1-carbonitrile], the IC50 against HIF-2α (Table 2, 20 hours incubation) is less than 0.1 µM; in test [1] (Table 2), less than 0.1 µM.

As to `N#Cc1cc(F)cc2c1N(c1ccc(C(F)(F)F)c(F)c1CO)CCC2` [Example 42], the IC50 on HIF-2α (Table 1, 20 hours incubation) is greater than 1 µM; in test [1] (Table 1) it was 0.1 to 1 µM.

For `O=S(=O)(c1ccc(N2C[C@@H](O)Cc3cc(F)cc(F)c32)c2c1[C@H](O)[C@H](F)C2)C(F)(F)F` [Example 66], the IC50 against HIF-2α (Table 1, 20 hours incubation) was greater than 1 µM; in test [1] (Table 1), greater than 1 µM.

Turning to `CC1(C)CC[C@H](c2ccc(S(=O)(=O)C(F)(F)F)c3c2C[C@@H](F)[C@H]3O)c2c(C#N)cc(F)cc21` [Example 114], the IC50 was less than 0.1 µM on HIF-2α (Table 1, 20 hours incubation) and less than 0.1 µM in test [1] (Table 1).

For `O=S(=O)(c1ccc(N2CCCc3cc(F)cc(F)c32)c2c1C(O)CC2)C(F)(F)F` (centres unmarked) [Example 78], the IC50 against HIF-2α (Table 1, 20 hours incubation) was greater than 1 µM; in test [1] (Table 1) it was greater than 1 µM.

Turning to `N#Cc1cc(F)cc2c1N(c1ccc(C(F)(F)F)c(F)c1Cl)CCC2` [Example 15, 1-[2-chloro-3-fluoro-4-(trifluoromethyl)phenyl]-6-fluoro-1,2,3,4-tetrahydroquinoline-8-carbonitrile], the IC50 lay within 0.1 to 1 µM against HIF-2α (Table 1, 20 hours incubation) and 0.1 to 1 µM in test [1] (Table 1).

As to `O=S1(=O)c2ccc(C3CCCc4cc(F)cc(F)c43)c(Cl)c2C(O)C1(F)F` (centres unmarked) [Example 103], the IC50 was greater than 1 µM at HIF-2α (Table 1, 20 hours incubation) and greater than 1 µM in test [1] (Table 1).

`N#Cc1cc(F)cc2c1N(c1ccc(S(=O)(=O)C(F)(F)F)c(C#N)c1Cl)CCC2` [Example 10, 1-(2-chloro-3-cyano-4-trifluoromethanesulfonylphenyl)-6-fluoro-1,2,3,4-tetrahydroquinoline-8-carbonitrile]: the IC50 against HIF-2α (Table 1, 20 hours incubation) was less than 0.1 µM; in test [1] (Table 1) it was less than 0.1 µM.

Regarding `O=S(=O)(c1ccc(N2CCCc3cc(F)cc(F)c32)c2cn[nH]c12)C(F)(F)F` [Example 81], the IC50 against HIF-2α (Table 1, 20 hours incubation) was greater than 1 µM; in test [1] (Table 1), greater than 1 µM.

As to `CS(=O)(=O)c1ccc([C@H]2CCCc3cc(F)cc(C#N)c32)c2c1[C@H](O)[C@H](F)CC2` [Example 98], the IC50 on HIF-2α (Table 1, 20 hours incubation) fell in the range of 0.1 to 1 µM; in test [1] (Table 1), 0.1 to 1 µM.

On to `N#Cc1cc(F)cc2c1N(c1ccc(C(F)(F)F)c(F)c1C#N)CCC2` [Example 118], for which the IC50 fell in the range of 0.1 to 1 µM against HIF-2α (Table 1, 20 hours incubation) and 0.1 to 1 µM in test [1] (Table 1).

For `CC(F)(F)c1ccc(N2CCC(F)(F)c3cc(F)cc(C#N)c32)c(C#N)c1F` [Example 133, 1-[2-cyano-4-(1,1-difluoroethyl)-3-fluorophenyl]-4,4,6-trifluoro-1,2,3,4-tetrahydro-8-quinolinecarbonitrile], the IC50 was less than 0.1 µM on HIF-2α (Table 2, 20 hours incubation) and less than 0.1 µM in test [1] (Table 2).

Turning to `CS(=O)(=O)c1ccc(C2CCCc3cc(F)ccc32)c2c1[C@H](O)C(F)(F)C2` (some centres unmarked) [Example 9], the IC50 at HIF-2α (Table 1, 20 hours incubation) was 0.1 to 1 µM; in test [1] (Table 1), 0.1 to 1 µM.

In the case of `Cc1c(N2CCC(F)(F)c3cc(F)cc(C#N)c32)cnc(C(F)(F)F)c1C#N` [Example 128, 1-[5-cyano-4-methyl-6-(trifluoromethyl)pyridin-3-yl]-4,4,6-trifluoro-2,3-dihydroquinoline-8-carbonitrile], the IC50 on HIF-2α (Table 2, 20 hours incubation) is less than 0.1 µM; in test [1] (Table 2) it was less than 0.1 µM.

For the compound `Cc1c(N2CCCc3cc(F)cc(C#N)c32)ccc(C(F)(F)F)c1F` [Example 37], the IC50 on HIF-2α (Table 1, 20 hours incubation) was in the range of 0.1 to 1 µM; in test [1] (Table 1), 0.1 to 1 µM.

Regarding `N#Cc1cc(F)cc2c1N(c1ccc(S(=O)(=O)C(F)(F)F)c3ncccc13)CCC2` [Example 40], the IC50 against HIF-2α (Table 1, 20 hours incubation) is greater than 1 µM; in test [1] (Table 1), 0.1 to 1 µM.

For the compound `Cc1cnccc1-c1ccc([C@H]2CC[C@H](F)c3cc(F)cc(C#N)c32)c2c1[C@H](O)C(F)(F)C2` [Example 242, (5S,8R)-8-[(1S)-2,2-difluoro-1-hydroxy-7-(3-methylpyridin-4-yl)-2,3-dihydro-1H-inden-4-yl]-3,5-difluoro-5,6,7,8-tetrahydronaphthalene-1-carbonitrile], the IC50 at HIF-2α (Table 3, 20 hours incubation) was less than 0.1 µM; in test [1] (Table 3), less than 0.1 µM.

As to `CC[C@@H]1CCN(c2ccc(S(=O)(=O)C(F)(F)F)c3c2C[C@@H](F)[C@H]3O)c2c(F)cc(F)cc21` [Example 45], the IC50 at HIF-2α (Table 1, 20 hours incubation) was greater than 1 µM; in test [1] (Table 1) it was 0.1 to 1 µM.

Take `O=[N+]([O-])c1cc(S(=O)(=O)C(F)(F)F)ccc1N1CCOc2cc(F)cc(F)c21` [Example 73]: the IC50 at HIF-2α (Table 1, 20 hours incubation) is greater than 1 µM; in test [1] (Table 1), greater than 1 µM.

With `O=[N+]([O-])c1cc(S(=O)(=O)C(F)(F)F)ccc1N1CCCc2cc(Cl)cc(F)c21` [Example 58], the IC50 is greater than 1 µM at HIF-2α (Table 1, 20 hours incubation) and greater than 1 µM in test [1] (Table 1).

For the compound `O=[N+]([O-])c1cc(C(O)C(F)(F)F)ccc1N1CCCc2cc(F)cc(F)c21` (centres unmarked) [Example 84], the IC50 on HIF-2α (Table 1, 20 hours incubation) was greater than 1 µM; in test [1] (Table 1), greater than 1 µM.

For the compound `N#Cc1cc(F)cc2c1C(c1ccc(C#N)c3c1CC(F)(F)[C@H]3O)CCC2` (mixture of isomers) [Example 141, 8-[(1S)-7-cyano-2,2-difluoro-1-hydroxy-1,3-dihydroinden-4-yl]-3-fluoro-5,6,7,8-tetrahydronaphthalene-1-carbonitrile], the IC50 is less than 0.1 µM at HIF-2α (Table 2, 20 hours incubation) and less than 0.1 µM in test [1] (Table 2).

The term IC50 denotes the midpoint of a concentration-inhibition curve. A high value points to a need for much substance.
